Measured values from the NIST ThermoML archive (doi:10.1021/je100734t).
Values joined by “and” are separate entries in the source; they are usually repeats but may differ in a detail not shown here. Equal entries are not always repeated. Numbers after ± are expanded uncertainties.

Experiments:
[1] = 101 kPa, Liquid; for speed of sound: Pulse-echo method
[2] = xn = mol fraction of the nth substance listed; settings: 101 kPa, Liquid; for speed of sound: Pulse-echo method

| SMILES | mass density ([1]; 293.15 K) | speed of sound ([1]; 293.15 K) | mass density ([1]; 303.15 K) | speed of sound ([1]; 303.15 K) | mass density ([1]; 313.15 K) | speed of sound ([1]; 313.15 K) | speed of sound ([2]; 293.15 K, x1 = 1) | mass density ([2]; 293.15 K, x1 = 1) | speed of sound ([2]; 303.15 K, x1 = 1) | mass density ([2]; 303.15 K, x1 = 1) | speed of sound ([2]; 313.15 K, x1 = 1) | mass density ([2]; 313.15 K, x1 = 1) | other results |
| --- | --- | --- | --- | --- | --- | --- | --- | --- | --- | --- | --- | --- | --- |
| Cc1ccccc1C [1,2-dimethylbenzene] | 879.49 ± 0.35 kg/m3 | 1369 ± 2 m/s | 871.14 ± 0.36 kg/m3 | 1328 ± 2 m/s | 862.59 ± 0.38 kg/m3 | 1289 ± 2 m/s | – | – | – | – | – | – | – |
| Cc1ccccc1C [1,2-dimethylbenzene] + CCCCCCCCCCO | – | – | – | – | – | – | 1369 ± 2 m/s | 879.49 ± 0.35 kg/m3 | 1328 ± 2 m/s | 871.14 ± 0.36 kg/m3 | 1289 ± 2 m/s | 862.59 ± 0.38 kg/m3 | – |
| Cc1ccccc1C [1,2-dimethylbenzene] + CCCCCCCCCO | – | – | – | – | – | – | 1369 ± 2 m/s | 879.49 ± 0.35 kg/m3 | 1328 ± 2 m/s | 871.14 ± 0.36 kg/m3 | 1289 ± 2 m/s | 862.59 ± 0.38 kg/m3 | – |
| Cc1cccc(C)c1 [1,3-dimethylbenzene] | 864.18 ± 0.49 kg/m3 | 1341 ± 2 m/s and 1340 ± 2 m/s | 855.56 ± 0.5 kg/m3 | 1300 ± 2 m/s | 846.9 ± 0.51 kg/m3 | 1259 ± 2 m/s | – | – | – | – | – | – | – |
| Cc1cccc(C)c1 [1,3-dimethylbenzene] + CCCCCCCCCO | – | – | – | – | – | – | 1341 ± 2 m/s | 864.18 ± 0.49 kg/m3 | 1300 ± 2 m/s | 855.56 ± 0.5 kg/m3 | 1259 ± 2 m/s | 846.9 ± 0.51 kg/m3 | – |
| Cc1ccc(C)cc1 [1,4-dimethylbenzene] | 860.96 ± 0.49 kg/m3 | 1330 ± 2 m/s | 852.25 ± 0.5 kg/m3 | 1289 ± 2 m/s | 843.51 ± 0.51 kg/m3 | 1249 ± 2 m/s | – | – | – | – | – | – | – |
| Cc1ccc(C)cc1 [1,4-dimethylbenzene] + CCCCCCCCCCO | – | – | – | – | – | – | 1330 ± 2 m/s | 860.96 ± 0.49 kg/m3 | 1289 ± 2 m/s | 852.25 ± 0.5 kg/m3 | 1249 ± 2 m/s | 843.51 ± 0.51 kg/m3 | – |
| Cc1ccc(C)cc1 [1,4-dimethylbenzene] + CCCCCCCCCO | – | – | – | – | – | – | 1330 ± 2 m/s | 860.96 ± 0.49 kg/m3 | 1289 ± 2 m/s | 852.25 ± 0.5 kg/m3 | 1249 ± 2 m/s | 843.51 ± 0.51 kg/m3 | – |
| CCCCCCCCCCO [decan-1-ol] | 829.98 ± 0.42 kg/m3 | 1396 ± 2 m/s | 823.1 ± 0.44 kg/m3 | 1362 ± 2 m/s | 816.27 ± 0.45 kg/m3 | 1329 ± 2 m/s | – | – | – | – | – | – | – |
| CCCCCCCCCCO [decan-1-ol] + Cc1cccc(C)c1 | – | – | – | – | – | – | – | – | – | – | – | – | speed of sound ([2]; 293.15 K, x2 = 0): 1396 ± 2 m/s; mass density ([2]; 293.15 K, x2 = 0): 829.98 ± 0.42 kg/m3; speed of sound ([2]; 303.15 K, x2 = 0): 1362 ± 2 m/s; mass density ([2]; 303.15 K, x2 = 0): 823.1 ± 0.44 kg/m3; speed of sound ([2]; 313.15 K, x2 = 0): 1329 ± 2 m/s; mass density ([2]; 313.15 K, x2 = 0): 816.27 ± 0.45 kg/m3 |
| CCc1ccccc1 [ethylbenzene] | 867.14 ± 0.35 kg/m3 | 1340 ± 2 m/s | 858.37 ± 0.36 kg/m3 | 1298 ± 2 m/s | 849.55 ± 0.37 kg/m3 | 1257 ± 2 m/s | – | – | – | – | – | – | – |
| CCc1ccccc1 [ethylbenzene] + CCCCCCCCCCO | – | – | – | – | – | – | 1340 ± 2 m/s | 867.14 ± 0.35 kg/m3 | 1298 ± 2 m/s | 858.37 ± 0.36 kg/m3 | 1257 ± 2 m/s | 849.55 ± 0.36 kg/m3 | – |
| CCc1ccccc1 [ethylbenzene] + CCCCCCCCCO | – | – | – | – | – | – | 1340 ± 2 m/s | 867.14 ± 0.35 kg/m3 | 1298 ± 2 m/s | 858.37 ± 0.36 kg/m3 | 1257 ± 2 m/s | 849.55 ± 0.37 kg/m3 | – |
| CCCCCCCCCO [nonan-1-ol] | 827.7 ± 0.43 kg/m3 | 1381 ± 2 m/s | 820.82 ± 0.44 kg/m3 | 1347 ± 2 m/s | 813.88 ± 0.45 kg/m3 | 1314 ± 2 m/s | – | – | – | – | – | – | – |
